Measurements reported in article PMC10470178, “Long-acting lenacapavir protects macaques against intravenous challenge with simian-tropic HIV” (eBioMedicine, 2023).
Read-outs that look alike come from different tables or passages of the source.

Tests used:
stHIV-A19 = assay: PrEP protection from high-dose intravenous stHIV-A19 challenge in pigtail macaques; format: in vivo, pigtail macaques (Macaca nemestrina)
Procedure: (§1) Sixteen male, purpose-bred pigtail macaques (Macaca nemestrina; ages 4.6–8.5 years at the time of study initiation) were housed at NIH-Bethesda (Supplementary Table S1). All study animals received enrofloxacin (10 mg/kg, administered orally, once per day for 10 days), paromomycin (25 mg/kg, administered orally, twice daily for 7–10 days), and fenbendazole (50 mg/kg administered orally, once per day for 5 days) two weeks to 43 months prior to study initiation. Lenacapavir or drug vehicle (sterile, preservative-free 57.5% w/v polyethylene glycol 300 in water) doses were administered to sedated animals via SC injection into the scapular region such that no more than 2 ml of solution was injected into a single SC site. Animals in the LEN pharmacokinetic evaluation study (N = 6) each received two doses of LEN, both at 15 mg/kg (N = 3) or at 50 mg/kg (N = 3), 6 weeks apart. Animals in the virus challenge experiment each received a single dose of LEN at 25 mg/kg (N = 3, LEN PrEP group) or drug vehicle (N = 4, vehicle control group) 30 days prior to stHIV-A19 challenge, or a cART regimen consisting of tenofovir disoproxil fumarate (TDF), emtricitabine (FTC), and dolutegravir (DTG) (N = 3, TDF/FTC/DTG group), coformulated and administered as previously described[29]^,[30] for 7 days beginning 3 days prior to stHIV-A19 challenge (Supplementary Figure S1). Hair was clipped and skin marked at LEN and vehicle injection sites to allow for subsequent visual and manual assessment and scoring of potential ISRs by non-blinded veterinary care staff. Complete blood counts (CBC) and serum chemistries were monitored prior to and at 2- to 4-week intervals after LEN administration for at least one year. Following the first dose of LEN in the PK study, one animal in the 50-mg/kg dosing group received 7 consecutive days of daily ketoprofen (2 mg/kg) administered intramuscularly for ISR analgesia at veterinary discretion. For the second dose of LEN in the PK study, all animals in the 50-mg/kg dosing group received 5–7 consecutive days of twice daily oral carprofen (2 mg/kg) analgesia administered prophylactically starting on the day of LEN dosing. In the IV challenge PrEP study, all LEN and vehicle control animals received 3–5 consecutive days of twice daily oral carprofen (2 mg/kg) analgesia administered prophylactically starting on the day of injection. For virus challenge, PrEP study animals each received 1 × 10^5 infectious units of stHIV-A19 injected intravenously. After LEN washout, LEN PrEP group animals received a single 50-mg/kg dose of rhesusized depleting anti-CD8α antibody (MT807R1, RRID: AB_2716320, NIH Nonhuman Primate Reagent Resource), administered SC to anesthetized animals.
Simian-tropic HIV was isolated from clarified PTM plasma by centrifugation (21,000×g for 1 h), and the resultant pellet was extracted as described.[31] Pigtail macaque PBMCs were subjected to nucleic acid extraction essentially as previously described for tissues.[32] HIV gag DNA and RNA copies were assessed using a multiplexed qPCR assay, as previously described.[33] Plasma stHIV-A19 vRNA levels are reported as copies/ml of plasma. PBMC-associated stHIV-A19 vDNA levels are reported as copies/10^6 cell equivalents, based on 2 copies of the CCR5 gene per diploid cellular genome.[34]
Plasma specimens collected from all 10 virus challenge animals prior to and at 8 weeks after stHIV-A19 challenge were evaluated for the presence of antibodies specific for HIV-1 by Western blot analysis using the GS HIV-1 Western Blot kit (Bio-Rad, cat #32508) according to the manufacturer’s instructions.
Statistical analyses were performed using R v4.1.1 ((R Core Team, 2021). R: A language and environment for statistical computing. R Foundation for Statistical Computing, Vienna, Austria. URL https://www.R-project.org/). […]

[1] = format: in vivo, pigtail macaques (Macaca nemestrina)
Procedure: as §1

[2] = all 3 LEN PrEP animals, 34 days of monitoring after anti-CD8α antibody at 419 days post-challenge

## CC(C)(C#Cc1ccc(-c2ccc(Cl)c3c(NS(C)(=O)=O)nn(CC(F)(F)F)c23)c([C@H](Cc2cc(F)cc(F)c2)NC(=O)Cn2nc(C(F)(F)F)c3c2C(F)(F)[C@@H]2C[C@H]32)n1)S(C)(=O)=O [LEN, Lenacapavir]
stHIV-A19; [2]
  PBMC vDNA following CD8 depletion: 6.2–11.0 vDNA copies/10^6 PBMC
  plasma vRNA following CD8 depletion: < 2.8 vRNA copies/ml plasma
stHIV-A19; all animals of the group, any time point
  cell-associated viral DNA (CA-vDNA) in PBMC after stHIV-A19 challenge: vDNA was not detected at any time point
stHIV-A19; assay threshold 2.8 vRNA copies/ml, LEN ∼370 days follow-up, TDF/FTC/DTG through 120 days post-challenge
  plasma vRNA after stHIV-A19 challenge: no plasma vRNA detected at any time point
stHIV-A19; each p < 0.03, Fisher's exact test
  infection rates compared with vehicle control group: significantly lower than in the vehicle control group
stHIV-A19; plasma, 8 weeks after stHIV-A19 challenge, all animals
  HIV-1 Western blot serology: remained seronegative
stHIV-A19; single IV challenge 1 × 10^5 i.u., LEN 25 mg/kg SC 30 days before (N = 3), 3-drug regimen daily SC for 7 days from 3 days before (N = 3)
  protection from infection after stHIV-A19 challenge: protected PTMs from infection
[1]; 15 mg/kg SC, Dose 1
  ISR cumulative incidence: Erythema: 3/3
  ISR cumulative incidence: Hyperkeratosis: 2/3
  ISR cumulative incidence: Nodule: 3/3
  ISR cumulative incidence: Ulceration: 0/3
[1]; 15 mg/kg SC, Dose 2
  ISR cumulative incidence: Erythema: 0/3
  ISR cumulative incidence: Hyperkeratosis: 0/3
  ISR cumulative incidence: Nodule: 1/3
  ISR cumulative incidence: Ulceration: 0/3
[1]; 25 mg/kg SC, Dose 1
  ISR cumulative incidence: Erythema: 0/3
  ISR cumulative incidence: Hyperkeratosis: 2/3
  ISR cumulative incidence: Nodule: 3/3
  ISR cumulative incidence: Ulceration: 2/3
[1]; 50 mg/kg SC, Dose 1
  ISR cumulative incidence: Erythema: 0/3
  ISR cumulative incidence: Hyperkeratosis: 0/3
  ISR cumulative incidence: Nodule: 3/3
  ISR cumulative incidence: Ulceration: 1/3
[1]; 50 mg/kg SC, Dose 2
  ISR cumulative incidence: Erythema: 0/3
  ISR cumulative incidence: Hyperkeratosis: 2/3
  ISR cumulative incidence: Nodule: 3/3
  ISR cumulative incidence: Ulceration: 2/3
[1]; PTMs that received SC LEN injections
  complete blood counts (CBC) and blood serum chemistries: No abnormalities or significant changes
[1]; some animals following some SC LEN injections
  injection site reactions (ISRs), severity: Mild to moderate
